Test results: ChEMBL document CHEMBL5728931, “Inhibitors of phosphoglycerate dehydrogenase (PHGDH) and uses thereof” (2022)

Target: T1, D-3-phosphoglycerate dehydrogenase (Homo sapiens, UniProt O43175)
T1 sequence (O43175 whole entry): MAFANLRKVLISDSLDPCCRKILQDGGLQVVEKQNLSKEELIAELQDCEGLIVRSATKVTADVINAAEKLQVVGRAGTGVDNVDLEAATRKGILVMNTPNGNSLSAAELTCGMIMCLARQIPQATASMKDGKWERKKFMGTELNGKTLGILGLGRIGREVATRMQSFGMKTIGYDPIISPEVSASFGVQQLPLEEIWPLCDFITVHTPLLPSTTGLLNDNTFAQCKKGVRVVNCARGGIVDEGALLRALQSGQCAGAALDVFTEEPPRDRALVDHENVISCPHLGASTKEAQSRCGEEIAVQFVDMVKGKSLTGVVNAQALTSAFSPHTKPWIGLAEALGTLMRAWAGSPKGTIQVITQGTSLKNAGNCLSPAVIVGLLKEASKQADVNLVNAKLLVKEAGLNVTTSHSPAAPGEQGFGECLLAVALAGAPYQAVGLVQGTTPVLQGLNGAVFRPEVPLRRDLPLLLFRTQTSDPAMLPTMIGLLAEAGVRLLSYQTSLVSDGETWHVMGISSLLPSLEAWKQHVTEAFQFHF
Experiment: Enzyme Assay: PHGDH assay buffer contained 50 mM TEA pH 8.0, 10 mM MgCl2, 0.05% BSA, and 0.01% Tween-20. PHGDH enzyme buffer consisted of assay buffer with 20 nM PHGDH and 0.2 mg/mL diaphorase. PHGDH substrate buffer contained 0.3 mM NAD 1.25 mM glutamate, 0.1 mM 3-phosphoglycerate, 0.2 mM resazurin, 1 μM PSAT1, and 1 μM PSPH. qHTS was performed in 1536-well plates dispensed with a BioRAPTR FRD. Each well contained equal volumes of substrate buffer […]. Plates were read at 0 minutes and 20 minutes at room temperature with a ViewLux uHTS Microplate Imager (PerkinElmer). Follow-up assays were performed in black 384-well plates (Greiner) in 20 μL of enzyme buffer to which compounds were added in dose-response with an HP D300 digital dispenser (Hewlett-Packard), followed by addition of 20 μL of substrate buffer. Plates were incubated at room temperature (25° C.) and read at 0 and 20 minutes with a Spectramax M5 plate reader (Molecular Devices) in fluorescence intensity mode with a λex=550 nm and λem=600 nm (emission cutoff=590 nm).

Cc1cc(C)nc(NC(=S)N2CCN(c3cncnc3)CC2)c1
IC50: > 20 µM
